The subject of data set [1] is HT29SN-38-RES cells. In words: MDR reversal analysis with MTT assay, HT29SN-38-RES. Format: cell-based, human. The conditions noted are these: 72 hours, oxaliplatin is not a substrate for BCRP. The protocol:
Control conditions consisted of full growth medium. All treatments were performed in triplicate.
A general note: Formazan colour is commonly taken as a measure of viable cells.

Data set [2] deals with T1, BCRP (Homo sapiens, UniProt Q9UNQ0).
T1 sequence (Q9UNQ0 1-655): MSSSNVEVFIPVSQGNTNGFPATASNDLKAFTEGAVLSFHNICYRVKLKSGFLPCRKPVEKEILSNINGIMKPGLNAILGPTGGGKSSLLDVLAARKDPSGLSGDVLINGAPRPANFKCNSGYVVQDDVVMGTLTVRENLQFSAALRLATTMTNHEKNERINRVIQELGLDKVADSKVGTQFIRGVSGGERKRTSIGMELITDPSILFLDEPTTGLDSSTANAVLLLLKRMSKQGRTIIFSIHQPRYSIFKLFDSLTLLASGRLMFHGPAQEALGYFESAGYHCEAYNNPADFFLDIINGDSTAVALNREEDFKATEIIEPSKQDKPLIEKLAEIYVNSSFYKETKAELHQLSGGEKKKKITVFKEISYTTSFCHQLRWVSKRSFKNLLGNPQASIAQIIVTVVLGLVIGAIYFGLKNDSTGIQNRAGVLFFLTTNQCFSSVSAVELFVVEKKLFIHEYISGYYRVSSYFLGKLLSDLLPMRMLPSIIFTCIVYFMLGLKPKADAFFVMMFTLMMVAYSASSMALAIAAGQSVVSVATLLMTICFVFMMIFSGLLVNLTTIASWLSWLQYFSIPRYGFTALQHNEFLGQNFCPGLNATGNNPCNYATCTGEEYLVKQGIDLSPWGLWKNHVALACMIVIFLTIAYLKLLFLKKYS
In words: Fluorometric transporter inhibition, BCRP-CHO. Type of data set: in vitro ADME. The conditions noted are these: Hoechst 33342 substrate. As to the method:
Cells were seeded in a 96-well plate (20,000 cells/well) and used on days 2 or 3 post-seeding. […] Subsequently, substrate was added to the plate followed by 20 min incubation at 37 °C. The plate was then washed with cold assay buffer followed by fluorescence reading on a plate reader. The tested transporters, cell lines, substrates, and reference inhibitors are shown in the Supplementary Materials (Tables S1 and S2).
110 Table S1. […]
120 transporters (P-gp and BCRP), increased fluorescence signal represents inhibition of the transporter activity.
The IC50 values are shown for the analysed transporters with […]

Data set [3] concerns CYP1A2. Nature of the data set: CYP induction in human hepatocytes, CYP1A2 mRNA. Type of data set: in vitro ADME. The conditions noted are these: plated human hepatocytes.
For data set [4], the system named is CYP2B6. In words: CYP induction in human hepatocytes, CYP2B6 mRNA. The conditions noted are these: plated human hepatocytes. Format: in vitro ADME.
For data set [5], the system named is CYP3A. In words: CYP induction in human hepatocytes, CYP3A mRNA. Type of data set: in vitro ADME. The conditions noted are these: plated human hepatocytes.
In data set [6] the target is CYP1A (Homo sapiens, UniProt P05177).
On the set-up of data set [7]: method as in PMID 26260222. The conditions noted are these: cited from earlier work.
On the set-up of data set [8]: method as in PMID 26260222. The conditions noted are these: mice; cited from earlier work.
The target in data set [9] is CYP3A (Homo sapiens, UniProt P08684). Nature of the data set: in vitro. The conditions noted are these: both, pooled human liver microsomes, pH 7.4, probe testosterone.
The test system of data set [10] is CYP1A, CYP2B6, CYP2C8, CYP2C9, CYP2C19, CYP2D6, CYP3A. In words: in vitro. The conditions noted are these: both, human, pooled human liver microsomes, pH 7.4. In general terms: Liver microsomes are vesicles of endoplasmic reticulum, rich in cytochrome P450 enzymes.
Protocol: The reaction was initiated by adding a Nicotinamide adenine dinucleotide phosphate (NADPH)-generating system. The reaction was allowed for 10 min and stopped by transferring the reaction mixture to acetonitrile/methanol. Samples were mixed and centrifuged. Supernatants were used for HPLC-MS/MS of the respective metabolite.
Data analysis: Peak areas corresponding to the metabolite were recorded. The percent of control activity was calculated by comparing the peak area in the presence of the test compound to the control samples containing the same solvent. […] The IC50 value (concentration causing a half-maximal inhibition of the control value) was determined by non-linear regression analysis of the concentration–response curve using the Hill equation.
Data set [11] addresses CYP2C8 (Homo sapiens, UniProt P10632). In words: biochemical.
Data set [12] deals with T1, BCRP. Nature of the data set: […] ATPase assay with recombinant BCRP membranes. Type of data set: biochemical. Also noted: purchased Solvo Biotechnology (via Sigma-Aldrich/Merck) SB-BCRP-M. The protocol: After incubation with test compounds, MgATP was added to each well and incubated at 37 °C for 10 min. The ATPase reaction was stopped by the addition of 1x Developer solution at room temperature (RT). Two minutes after, 100 µL Blocker solution was added and the plate was incubated for 30 min at 37 °C for 30 min. The optical densities were measured at 620 nm using a PowerWave X Microplate spectrophotometer (BioTek, Bad Friedrichshall, Germany).

Data set [13] addresses T1, BCRP. Nature of the data set: Cellular dye efflux assay (Hoechst 33342) in HT29SN-38-RES cells. Also noted: endogenous in cells; host or cells: HT29 SN-38-RES (drug-selected HT29). Format: cell-based.
Protocol: HT29 cells were seeded either into a 96-well Nunclon plate (Thermo Fisher Scientific, Roskilde, Denmark) at a density of 6000 cells/well (for Celigo Imaging Cytometry) or into a Nunc 6-well plate at a density of 150,000 cells/well (for fluorescence microscopy). […] Then, the cells were washed with ice-cold PBS to remove excess Hoechst dye. Drugs were added again and the cells were incubated for 1h at 37 °C. The plates were analyzed with either fluorescence microscopy (6-well plates) or imaging cytometry (96-well plates). For the Celigo Imaging Cytometry (Lawrence, MA, USA), the application “Target 1 + 2 (merge)” was used, and the mean fluorescence intensities were measured and data presented as percentage of parental control.
The mark [14] stands for this setting: Donor 1, read-out: Mean Fold Induction of mRNA at 1× 10^−4 M.
Where [15] appears, read: Donor 2, read-out: Mean Fold Induction of mRNA at 1× 10^−4 M.
Setting [16] is: Donor 3, read-out: Mean Fold Induction of mRNA at 1× 10^−4 M.

Where two headings read alike, the source gives them in different places.

Chain of CYP1A (P05177 whole entry): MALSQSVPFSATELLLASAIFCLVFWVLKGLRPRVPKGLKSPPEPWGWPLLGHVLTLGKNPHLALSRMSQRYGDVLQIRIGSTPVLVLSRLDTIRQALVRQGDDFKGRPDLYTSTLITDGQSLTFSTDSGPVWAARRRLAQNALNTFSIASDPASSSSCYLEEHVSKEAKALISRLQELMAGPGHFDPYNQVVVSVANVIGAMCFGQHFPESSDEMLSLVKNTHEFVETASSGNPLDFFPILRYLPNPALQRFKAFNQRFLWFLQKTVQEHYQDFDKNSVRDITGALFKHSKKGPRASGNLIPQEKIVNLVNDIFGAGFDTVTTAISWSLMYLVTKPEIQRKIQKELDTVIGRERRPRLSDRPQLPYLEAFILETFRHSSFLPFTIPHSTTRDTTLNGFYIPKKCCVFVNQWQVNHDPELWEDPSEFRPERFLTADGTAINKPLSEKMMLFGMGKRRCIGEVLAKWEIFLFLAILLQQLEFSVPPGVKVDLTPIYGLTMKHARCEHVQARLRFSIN
Chain of CYP2C8 (P10632 whole entry): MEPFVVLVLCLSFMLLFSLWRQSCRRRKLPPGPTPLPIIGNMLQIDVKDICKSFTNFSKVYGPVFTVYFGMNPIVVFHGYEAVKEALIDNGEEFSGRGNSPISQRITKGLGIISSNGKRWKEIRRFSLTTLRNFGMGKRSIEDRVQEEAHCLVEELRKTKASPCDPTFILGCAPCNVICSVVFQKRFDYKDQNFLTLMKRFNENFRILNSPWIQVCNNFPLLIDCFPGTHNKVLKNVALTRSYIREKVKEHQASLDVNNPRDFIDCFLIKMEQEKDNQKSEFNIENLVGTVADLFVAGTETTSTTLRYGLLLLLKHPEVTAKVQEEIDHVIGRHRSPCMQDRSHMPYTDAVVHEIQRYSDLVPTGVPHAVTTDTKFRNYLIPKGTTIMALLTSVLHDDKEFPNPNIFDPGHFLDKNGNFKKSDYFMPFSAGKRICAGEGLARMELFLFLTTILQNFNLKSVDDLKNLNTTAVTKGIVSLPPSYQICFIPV
Chain of CYP3A (Homo sapiens, UniProt P08684) (P08684 2-503): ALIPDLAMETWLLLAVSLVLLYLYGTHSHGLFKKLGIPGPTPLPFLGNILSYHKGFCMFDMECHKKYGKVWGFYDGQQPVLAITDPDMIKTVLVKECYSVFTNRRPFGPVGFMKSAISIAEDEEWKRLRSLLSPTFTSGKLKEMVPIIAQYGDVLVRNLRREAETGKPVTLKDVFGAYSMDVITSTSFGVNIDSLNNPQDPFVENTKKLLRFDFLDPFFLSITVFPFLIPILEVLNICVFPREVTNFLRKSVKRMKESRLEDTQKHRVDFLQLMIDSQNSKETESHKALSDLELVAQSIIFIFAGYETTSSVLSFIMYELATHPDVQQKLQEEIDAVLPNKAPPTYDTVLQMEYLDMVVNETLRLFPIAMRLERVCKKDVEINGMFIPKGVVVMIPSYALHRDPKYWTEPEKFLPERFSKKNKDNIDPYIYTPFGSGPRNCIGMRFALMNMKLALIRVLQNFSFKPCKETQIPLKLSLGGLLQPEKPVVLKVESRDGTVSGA

As to `Nc1nc(-c2ccccc2)nc2[nH]nc(Nc3ccc(C(F)(F)F)cc3)c12` [SCO-201], the “combinatorial effect with oxaliplatin on cell viability” value in data set [1] is on record as “no added effects”. Moreover, the IC50 (in general, the point on the concentration scale where inhibition reaches its midpoint) in [2] was 1.7 µM; in data set [6] it was above 100 µM; in data set [11], above 100 µM; in [13] (imaging cytometry, read-out: IC50, accumulation of Hoechst dye), 0.45 µM. In addition, the fold induction at 2 days in data set [3] (setting [14]) was determined as 0.24; in data set [3] (setting [15]) it was 0.39; in data set [3] (setting [16]) it was 0.26; in [4] (setting [14]), 0.17; in [4] (setting [15]), 0.52; in data set [4] (setting [16]), 0.45. Also, the fold induction at 2 days is 0.25 in data set [5] (setting [14]), 0.25 in data set [5] (setting [15]) and 0.32 in data set [5] (setting [16]). Moreover, in [7], the stability in serum result was “stable in serum”. Moreover, the oral activity result in [8] is on record as “orally active”. Besides, the IC50 at 10 min in data set [9] is above 100 µM; in data set [10] it was at least 100 µM. The “ATPase activity of BCRP, sulfasalazine-stimulated” value in data set [12] (SCO-201 added to sulfasalazine-stimulated BCRP) is recorded as “decreased in a dose-dependent manner”. Further, the “ATPase activity of BCRP, basal” value in [12] (in the absence of sulfasalazine) is “decreased dose-dependently”. Also, the “SN-38-stimulated ATPase activity of BCRP” value in [12] (in the presence of 0.5 µM or 1.5 µM SCO-201) is on record as “shifted downwards”. Also, in data set [13] (fluorescence microscopy and imaging cytometry), the “Hoechst accumulation in resistant cells” value is reported as “accumulated to the level of the parental control cells”.

Source of the values: PMC7140522, “The Pyrazolo[3,4-d]pyrimidine Derivative, SCO-201, Reverses Multidrug Resistance Mediated by ABCG2/BCRP” (Cells, 2020).
